In ChEMBL document CHEMBL6127116, “Discovery of Potent and Selective Blockers Targeting the Epilepsy-Associated KNa1.1 Channel” (J Med Chem, 2024):
pIC50: −log10 of the molar value.

What was measured:
[1] = Inhibition of human wild type SLACK expressed in CHO cells by Whole-cell automated patch clamp assay; assay type: cell-based
HEK293 = experiment: Cytotoxicity against HEK293 cells assessed as reduction in cell viability at 10 uM by CCK8 method relative to control; assay type: toxicity, cell-based; conditions: human, hek293, 10 µM
[2] = target: Sodium channel protein type 5 subunit alpha (Homo sapiens, UniProt Q14524); experiment: Inhibition of Nav1.5 (unknown origin) expressed in HEK293T cells at 10 uM by patch-clamp electrophysiology method; assay type: cell-based
[3] = target: T1, Potassium channel subfamily T member 1 (Homo sapiens, UniProt Q5JUK3); experiment: Inhibition of human SLACK expressed in HEK293 cells
T1 sequence (Q5JUK3 whole entry): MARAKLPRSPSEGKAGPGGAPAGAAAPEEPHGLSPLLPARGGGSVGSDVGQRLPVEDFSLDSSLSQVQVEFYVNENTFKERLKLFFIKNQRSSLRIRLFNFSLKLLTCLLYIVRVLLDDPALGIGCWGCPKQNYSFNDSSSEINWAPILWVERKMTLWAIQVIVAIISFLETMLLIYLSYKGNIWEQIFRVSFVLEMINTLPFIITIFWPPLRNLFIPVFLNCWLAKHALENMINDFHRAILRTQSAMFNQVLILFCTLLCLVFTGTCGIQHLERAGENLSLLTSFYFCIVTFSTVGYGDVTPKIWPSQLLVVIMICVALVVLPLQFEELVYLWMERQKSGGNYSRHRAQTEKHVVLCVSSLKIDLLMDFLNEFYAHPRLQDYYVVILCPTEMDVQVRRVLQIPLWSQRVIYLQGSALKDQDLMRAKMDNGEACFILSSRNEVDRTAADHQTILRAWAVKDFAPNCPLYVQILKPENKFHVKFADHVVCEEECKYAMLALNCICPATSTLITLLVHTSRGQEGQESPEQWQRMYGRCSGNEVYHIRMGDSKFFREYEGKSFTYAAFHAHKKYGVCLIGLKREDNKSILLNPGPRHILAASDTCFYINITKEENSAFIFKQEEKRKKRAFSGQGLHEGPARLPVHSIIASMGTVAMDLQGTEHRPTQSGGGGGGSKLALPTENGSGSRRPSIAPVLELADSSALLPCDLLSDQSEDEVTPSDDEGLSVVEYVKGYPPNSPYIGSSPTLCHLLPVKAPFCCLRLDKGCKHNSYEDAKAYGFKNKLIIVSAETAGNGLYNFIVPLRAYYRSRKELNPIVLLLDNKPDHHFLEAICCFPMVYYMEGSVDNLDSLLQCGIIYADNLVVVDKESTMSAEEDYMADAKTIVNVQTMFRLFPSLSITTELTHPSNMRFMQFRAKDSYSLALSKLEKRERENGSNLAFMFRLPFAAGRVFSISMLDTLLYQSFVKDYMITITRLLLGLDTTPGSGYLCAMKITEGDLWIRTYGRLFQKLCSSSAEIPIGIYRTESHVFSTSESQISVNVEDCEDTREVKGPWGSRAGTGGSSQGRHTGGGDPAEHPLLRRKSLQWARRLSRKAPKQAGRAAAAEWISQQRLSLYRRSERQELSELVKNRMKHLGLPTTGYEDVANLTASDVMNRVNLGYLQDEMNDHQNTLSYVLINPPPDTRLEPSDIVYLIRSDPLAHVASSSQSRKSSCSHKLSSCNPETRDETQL

[4] = target: T1, Potassium channel subfamily T member 1; experiment: Inhibition of wild type human KNa1.1 expressed in HEK293T cells by patch-clamp electrophysiology method; assay type: cell-based
[5] = Inhibition of KNa 1.1 (unknown origin); design: species or system Homo sapiens

Chain of Sodium channel protein type 5 subunit alpha (Q14524 whole entry): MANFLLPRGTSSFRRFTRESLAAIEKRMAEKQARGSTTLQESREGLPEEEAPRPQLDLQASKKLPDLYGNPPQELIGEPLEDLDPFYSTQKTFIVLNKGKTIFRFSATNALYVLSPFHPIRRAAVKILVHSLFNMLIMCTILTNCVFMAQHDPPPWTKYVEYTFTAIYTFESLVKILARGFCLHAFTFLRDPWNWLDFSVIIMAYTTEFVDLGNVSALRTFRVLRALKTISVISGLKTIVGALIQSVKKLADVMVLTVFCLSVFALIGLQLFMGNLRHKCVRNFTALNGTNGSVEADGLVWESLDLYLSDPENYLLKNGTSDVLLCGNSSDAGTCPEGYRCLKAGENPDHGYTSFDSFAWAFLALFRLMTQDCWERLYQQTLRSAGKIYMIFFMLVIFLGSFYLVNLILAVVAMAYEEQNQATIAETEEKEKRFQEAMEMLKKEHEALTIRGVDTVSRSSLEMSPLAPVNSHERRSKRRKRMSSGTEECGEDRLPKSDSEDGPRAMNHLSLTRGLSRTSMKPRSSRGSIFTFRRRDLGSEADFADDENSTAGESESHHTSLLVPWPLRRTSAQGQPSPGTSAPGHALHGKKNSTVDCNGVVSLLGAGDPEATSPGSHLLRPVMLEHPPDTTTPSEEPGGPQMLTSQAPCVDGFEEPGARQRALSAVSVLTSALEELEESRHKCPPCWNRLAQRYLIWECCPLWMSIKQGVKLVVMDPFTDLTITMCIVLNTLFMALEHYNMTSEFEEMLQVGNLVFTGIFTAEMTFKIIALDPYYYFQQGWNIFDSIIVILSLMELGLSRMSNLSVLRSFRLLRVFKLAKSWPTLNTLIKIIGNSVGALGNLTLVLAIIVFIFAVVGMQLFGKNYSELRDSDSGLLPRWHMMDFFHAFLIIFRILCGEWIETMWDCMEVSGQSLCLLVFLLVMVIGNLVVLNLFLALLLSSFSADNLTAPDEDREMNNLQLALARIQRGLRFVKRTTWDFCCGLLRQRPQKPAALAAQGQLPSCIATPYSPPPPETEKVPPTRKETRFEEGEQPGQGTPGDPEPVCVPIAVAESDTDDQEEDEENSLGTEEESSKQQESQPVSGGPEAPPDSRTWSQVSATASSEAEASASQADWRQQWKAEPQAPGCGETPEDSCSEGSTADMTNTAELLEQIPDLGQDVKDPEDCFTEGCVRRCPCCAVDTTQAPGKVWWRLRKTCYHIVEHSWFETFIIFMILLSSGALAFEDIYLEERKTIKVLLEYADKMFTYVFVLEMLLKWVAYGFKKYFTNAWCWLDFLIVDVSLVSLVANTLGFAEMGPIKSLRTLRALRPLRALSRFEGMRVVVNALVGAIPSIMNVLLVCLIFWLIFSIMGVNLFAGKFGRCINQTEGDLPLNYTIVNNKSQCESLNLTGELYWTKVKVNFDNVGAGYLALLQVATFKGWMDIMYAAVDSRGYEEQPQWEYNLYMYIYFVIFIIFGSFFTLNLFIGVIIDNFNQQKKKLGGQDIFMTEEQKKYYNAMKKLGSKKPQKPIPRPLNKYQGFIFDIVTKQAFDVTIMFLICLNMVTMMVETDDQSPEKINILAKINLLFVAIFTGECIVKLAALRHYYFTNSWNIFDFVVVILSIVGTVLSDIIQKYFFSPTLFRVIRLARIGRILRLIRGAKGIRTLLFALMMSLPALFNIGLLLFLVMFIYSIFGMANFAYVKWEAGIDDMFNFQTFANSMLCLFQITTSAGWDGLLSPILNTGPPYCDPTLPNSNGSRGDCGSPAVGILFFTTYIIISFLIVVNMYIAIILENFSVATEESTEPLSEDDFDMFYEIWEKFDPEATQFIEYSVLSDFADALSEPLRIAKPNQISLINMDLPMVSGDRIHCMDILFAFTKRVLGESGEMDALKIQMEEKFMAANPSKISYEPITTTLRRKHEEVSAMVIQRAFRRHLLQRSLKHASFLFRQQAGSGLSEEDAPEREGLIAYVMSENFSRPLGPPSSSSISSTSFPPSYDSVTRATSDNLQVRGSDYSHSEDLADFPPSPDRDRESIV

Compound: Cc1ccc2cccc(S(=O)(=O)N3CC(c4nc(-c5ccc(F)cc5)no4)C3)c2n1
- pIC50 [1]: 6.49

Compound: CN1CCC(NCc2c(OCc3ccc(F)cc3)ccc3ccccc23)CC1
- Activity (HEK293): 53.17%

Compound: CCn1c2c(c3ccccc31)CN(CCCCNCc1c(OCc3ccc(F)cc3)ccc3ccccc13)CC2
- inhibition (INH) [2]: Not Active

Compound: COc1ccc(Cl)cc1NC(=O)CN1CCN(S(=O)(=O)N2CCC(C)CC2)CC1
- pIC50 [3]: 5.74

Compound: CC(C)COCC(CN(Cc1ccccc1)c1ccccc1)N1CCCC1 (stereo unspecified) [BEPRIDIL]
- pIC50 [4]: 4.79
- pIC50 [5]: 5.20
